Assay results reported in patent publication US7803377B2, “Anti-DLL4 antibodies and methods using same” (Genentech, Inc., priority 2006, dated 2010).

Columns and labels:
[1] = tested on: human colon carcinoma Colo205 cells; test: Tumor model Colo205; type: in vivo, mouse
Method: (§1) Tumor models. Beige nude female mice of 8- to 10-week-old were used. To obtain subcutaneous tumors, mice were injected with 0.1 ml cell suspension containing 50% matrigel (BD Bioscience) into the right posterior flank. 5×10^6 human colon cancer HM7 cells, 10×10^6 human colon carcinoma Colo205 cells, 10×10^6 human lung carcinoma Calu6 cells, 10×10^6 human lung carcinoma MV-522 cells, 10×10^6 mouse leukemia WEHI-3 cells, 10×10^6 mouse lymphoma EL4 cells, 10×10^6 human ovarian cancer SK-OV-3 X1 cells, 10×06 mouse lung cancer LL2 cells, 10×10^6 leukemia/lymphoma EL4 cells, or 10×10^6 non-small lung cancer H1299 cells were injected into each mouse. For human melanoma MDA-MB-435 model, mice were injected into the mammary fat pad with 0.1 ml cell (5×10^6) suspension containing 50% matrigel. […] For the following tumor models, each test mouse received a subcutaneous tumor fragment (1 mm^3) implanted in the right flank: non-small lung cancer SKMES-1, human breast cancer MX-1, human colorectal cancer SW620 and human adenocarcinoma LS174T. The tumor growth was quantitated by caliper measurements. Tumor volume (mm^3) was determined by measuring the length (l) and width (w) and calculating the volume (V=lw2/2). 10 to 15 animals were included in each group. Statistical comparison of treatment groups was performed using two-tailed Student's t-test. […]

HUVECs = test: HUVEC fibrin gel bead assay; type: cell-based, human; conditions: anti-DLL4 antibody 5 μg/ml, DBZ 0.08 μM
Method: HUVEC fibrin gel bead assay. Details of the HUVEC fibrin gel bead assay have been described (Nakatsu, M. N. et al. Microvasc Res 66, 102-12 (2003)). Briefly, Cytodex™ 3 beads (Amersham Pharmacia Biotech) were coated with 350-400 HUVECs per bead. About 200 HUVEC-coated beads were imbedded in fibrin clot in one well of 12-well tissue culture plate. 8×10^4 SF cells were plated on top of the clot. Assays were terminated between day 7 and day 9 for immunostaining and imaging. In some experiments, HUVEC sprouts were visualized by staining with Biotin-anti-CD31 (clone WM59, eBioscience) and strepavidin-Cy3. For HUVEC nuclei staining, fibrin gels were fixed overnight in 2% paraformaldehyde (PFA), and stained with 4′,6-diamidino-2-phenylindole (DAPI, Sigma). For Ki67 staining, fibrin gels were treated with 10× trypsin-EDTA for 5 min to remove the top layer SF, neutralized with 10% FBS in PBS, and fixed overnight in 4% PFA. Fibrin gels were then blocked with 10% goat serum in PBST for 4 hr, incubated overnight with rabbit anti-mouse Ki67 (Ready-To-Use, clone Sp6, LabVision), followed by secondary detection with anti-rabbit IgG-Cy3 (Jackson ImmunoResearch). All overnight incubations were done at 4° C. […]

human breast cancer MX-1 = test: Tumor model MX-1; type: in vivo, mouse; conditions: 5 mg/kg, IP, twice weekly after establishment of the tumors
Method: as §1

full length DLL4 = biological target: T1, full length DLL4 (Homo sapiens, UniProt Q9NR61); test: FACS analysis of transiently transfected 293 cells; type: binding; conditions: DLL4 transfected 293 cells; antibody 2 μg/ml
T1 construct: transiently transfected with vector, full length DLL4, Jag1 or DLL1; expressed in transfected cells; host or cells: 293 cells, transient

[2] = tested on: non-small lung cancer SKMES-1; test: Tumor model SKMES-1; type: in vivo, mouse; conditions: 5 mg/kg, IP, twice weekly after establishment of the tumors
Method: as §1

[3] = Tolerability in tumor-bearing mice; type: in vivo, mouse; conditions: 10 mg/kg twice per week for up to 8 weeks
From the text: Thus, DLL4/Notch signaling is critical during active angiogenesis, but plays a less important role in normal vessel maintenance.

[4] = tested on: human colon cancer HM7 cells; test: Tumor model HM7; type: in vivo, mouse; conditions: treatment initiated at ≧250 mm^3; 10 mg/kg i.p. twice weekly; two weeks of treatment
Method: as §1

EL4 mouse lymphoma tumor = test: Tumor vascular labeling and immunohistochemistry (EL4 tumors); type: in vivo
Method: Tumor vascular labeling and immunohistochemistry. Mice were anesthetized with Isoflurane. FITC-labeled Lycopersicon esculentum Lectin (150 μg in 150 μl of 0.9% NaCl; Vector Laboratories) was injected i.v. and allowed to circulate for 5 min before systemic perfusion. The vasculature was perfused transcardially with 1% PFA in PBS for 3 min. Tumors were removed and post fixed by immersion in the same fixative for 2 hr, followed by an incubation in 30% sucrose overnight for cryoprotection, then embedded in OCT. Sections (4 μm thickness) were stained with anti-mouse CD31 (1:50, BD Pharmingen), followed by Alexa 594 goat anti-rat IgG (1:800, Molecular Probes).
In light of the tumor growth inhibition, we used the EL4 mouse lymphoma tumor model for vascular histology studies.
Since in vitro blocking of DLL4/Notch pathway impaired the formation of lumen-like structure by ECs (FIG. 8a), it was investigated whether treatment with anti-DLL4 Mab caused similar defect in the tumor vasculature and affected efficient blood flow. […] Given the critical role of DLL4/Notch signaling in AV differentiation, both in embryos and early postnatal retinas, anti-DLL4 Mab could impact cell fate specification of tumor ECs and cause defective directional blood flow. […] Further studies utilizing vascular imaging techniques are needed to gain insights into the precise vascular defects.

YW26.82: affinity matured anti-DLL4 monoclonal antibody; HVR-H1/H2/H3 SEQ ID NO:1, 8, 9; HVR-L1/L2/L3 SEQ ID NO:10, 11, 18
tumor histology: EC density and viable tumor cell content ([1]; anti-DLL4 Mab treated Colo205 tumors): high EC density was associated with low viable tumor cell content
tumor volume ([1]; treatment initiated at ≧250 mm^3, 10 mg/kg i.p. twice weekly, two weeks of treatment): remained static
HUVEC sprouting (length and number of sprouts) (HUVECs; fibrin gel with co-cultured SF cells): markedly increased the length and number of sprouts
Ki67 staining, HUVEC proliferation (HUVECs; fibrin gel): caused hyperproliferation of HUVECs
tumor growth, single agent (human breast cancer MX-1): inhibited tumor growth alone
binding by FACS (full length DLL4): significant binding
tumor growth, single agent [2]: inhibited tumor growth alone
weight loss or animal death [3]: no apparent weight loss or animal death
tumor volume [4]: remained static
endothelial cell density (anti-CD31) in tumor sections (EL4 mouse lymphoma tumor; EL4 tumors): dramatic increase in endothelial cell density
FITC-lectin labeling of tumor vessels (vascular perfusion) (EL4 mouse lymphoma tumor; systemic perfusion with FITC-lectin, EL4 tumor sections): marked reduction of lectin labeling of tumor vessels
